From the supplement of paper PMC10307832

Key:
Test in all cases: relative viability (nuclei count vs DMSO), 5 days (fraction); higher = more cells survive
[1] = compound: C[C@]12O[C@H](C[C@]1(O)CO)n1c3ccccc3c3c4c(c5c6ccccc6n2c5c31)CNC4=O [Lestaurtinib] + C[C@@H](Oc1cc(-c2cnn(C3CCNCC3)c2)cnc1N)c1c(Cl)ccc(F)c1Cl [Crizotinib] (partner 1 µM)
Method in brief: (§1)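 Dosing by pin tool came one day after lung cancer cell lines were seeded in 1536-well plates, using either one drug or a fixed anchor-drug dose plus five library-drug doses (not always all listed) in √10 steps. After 5 days, nuclei were counted on 4× images. Relative viability is treated-well nuclei count divided by vehicle-well nuclei count, and values are medians of duplicate plates.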

Lestaurtinib + OSI-027 = compound: C[C@]12O[C@H](C[C@]1(O)CO)n1c3ccccc3c3c4c(c5c6ccccc6n2c5c31)CNC4=O [Lestaurtinib] + COc1cccc2cc(-c3nc([C@H]4CC[C@H](C(=O)O)CC4)n4ncnc(N)c34)[nH]c12 [OSI-027] (partner 0.5 µM)
Method in brief: as §1

[2] = compound: C1/C(=C\C2=CC=CS2)/C(=O)/C(=C/C3=CC=CS3)/C1 + O=C(CCCCCCC(=O)Nc1ccccc1)NO [Vorinostat] (partner 1 µM)
Method in brief: as §1

Row | Cell Line | relative viability ([1]; first compound 0.005 µM) | relative viability ([1]; first compound 0.01581 µM) | relative viability ([1]; first compound 0.1581 µM) | relative viability ([1]; first compound 0.5 µM) | relative viability (Lestaurtinib + OSI-027; first compound 0.005 µM) | relative viability (Lestaurtinib + OSI-027; first compound 0.01581 µM) | relative viability (Lestaurtinib + OSI-027; first compound 0.05 µM) | relative viability (Lestaurtinib + OSI-027; first compound 0.1581 µM) | relative viability (Lestaurtinib + OSI-027; first compound 0.5 µM) | relative viability ([2]; first compound 0.2 µM) | relative viability ([2]; first compound 0.6325 µM) | relative viability ([2]; first compound 2 µM) | relative viability ([2]; first compound 6.325 µM) | relative viability ([2]; first compound 20 µM) | relative viability ([1]; first compound 0.05 µM)
1 | COR-L23 | 0.707 | 0.763 | 0.489 | 0.161 | 0.612 | 0.933 | 0.281 | 0.395 | 0.343 | 0.475 | 0.597 | 0.477 | 0.348 | 0.451 | 
2 | ChaGo-K-1 | 1.25 | 1.33 | 0.778 | 0.381 | 0.608 | 0.626 | 0.5 | 0.376 | 0.373 | 0.761 | 0.749 | 0.703 | 0.511 | 0.254 | 0.855
3 | HOP-62 | 0.905 | 0.919 | 0.721 | 0.18 | 0.936 | 0.958 | 0.498 | 0.643 | 0.415 | 0.733 | 0.681 | 0.646 | 0.51 | 0.68 | 0.972
4 | NCI-H1915 | 0.914 | 1.1 | 0.848 | 0.357 | 0.687 | 0.477 | 0.42 | 0.337 | 0.246 | 0.568 | 0.546 | 0.551 | 0.433 | 0.528 | 0.816
5 | BEN | 0.902 | 1.1 | 0.687 | 0.29 | 0.463 | 0.313 | 0.3 | 0.298 | 0.196 | 0.64 | 0.537 | 0.661 | 0.566 | 0.535 | 0.879
6 | NCI-H1437 | 0.863 | 0.897 | 0.887 | 0.674 | 0.885 | 0.949 | 0.952 | 0.747 | 0.698 | 0.91 | 0.853 | 0.837 | 0.701 | 0.866 | 0.906
7 | EMC-BAC-2 | 0.722 | 0.76 | 0.569 | 0.264 | 0.38 | 0.365 | 0.363 | 0.308 | 0.263 | 0.351 | 0.473 | 0.453 | 0.455 | 0.489 | 0.599
8 | NCI-H647 | 0.93 | 1.12 | 0.225 | 0.141 | 0.6 | 0.562 | 0.28 | 0.205 | 0.143 | 0.44 | 0.539 | 0.398 | 0.423 | 0.774 | 0.624
9 | LXF-289 | 0.791 | 0.815 | 0.798 | 0.183 | 0.805 | 0.677 | 0.491 | 0.536 | 0.391 | 0.821 | 0.829 | 0.772 | 0.732 | 0.724 | 0.568
10 | LOU-NH91 | 0.755 | 0.718 | 0.547 | 0.469 | 0.728 | 0.711 | 0.637 | 0.574 | 0.424 | 1.03 | 0.934 | 1.01 | 0.782 | 0.973 | 0.627
11 | NCI-H23 | 0.466 | 0.495 | 0.546 | 0.233 | 0.592 | 0.719 | 0.596 | 0.418 | 0.345 | 0.662 | 0.628 | 0.702 | 0.564 | 0.591 | 0.401
12 | NCI-H1993 | 0.936 | 0.971 | 0.635 | 0.548 | 0.59 | 0.555 | 0.524 | 0.534 | 0.423 | 0.729 | 0.701 | 0.972 | 0.702 | 0.561 | 0.819
13 | HCC-827 | 0.911 | 1.08 | 0.71 | 0.335 | 0.781 | 0.727 | 0.459 | 0.626 | 0.659 | 0.999 | 0.897 | 0.908 | 0.764 | 0.822 | 0.85
14 | NCI-H650 | 0.744 | 0.764 | 0.414 | 0.226 | 0.536 | 0.6 | 0.441 | 0.364 | 0.313 | 0.432 | 0.436 | 0.419 | 0.413 | 0.373 | 0.509
15 | CAL-12T | 0.555 | 0.747 | 0.487 | 0.272 | 0.699 | 0.698 | 0.515 | 0.36 | 0.278 | 0.724 | 0.91 | 0.648 | 0.77 | 0.788 | 0.409
16 | NCI-H838 | 0.78 | 0.803 | 0.465 | 0.158 | 0.399 | 0.441 | 0.397 | 0.446 | 0.228 | 0.731 | 0.709 | 0.767 | 0.596 | 0.657 | 0.71
17 | NCI-H2228 | 0.512 | 0.442 | 0.21 | 0.255 | 0.528 | 0.627 | 0.349 | 0.294 | 0.104 | 0.668 | 0.563 | 0.764 | 0.396 | 0.504 | 0.415
18 | RERF-LC-KJ | 0.856 | 0.969 | 0.799 | 0.6 | 0.525 | 0.577 | 0.491 | 0.461 | 0.315 | 0.735 | 0.723 | 0.713 | 0.645 | 0.675 | 0.674
19 | NCI-H661 | 1.01 | 0.84 | 0.927 | 0.676 | 0.623 | 0.736 | 0.405 | 0.589 | 0.372 | 0.845 | 0.825 | 0.756 | 0.638 | 0.778 | 0.97
